Results on 26 molecules are retold here after patent US10660877B2 (BRISTOL-MYERS SQUIBB COMPANY, priority 2016, dated 2020).

Read-outs that look alike come from different tables or passages of the source.

The target of one experiment is human TLR7 (Homo sapiens (Human), UniProt Q9NYK1). Put plainly: TLR7 inhibition reporter assay (HEK-Blue cells, SEAP reporter, gardiquimod stimulation). In kind it is cell-based. For orientation: A reporter such as luciferase makes a cellular process visible.
In the next experiment the target is human TLR8 (Homo sapiens (Human), UniProt Q9NR97). Put plainly: TLR8 inhibition reporter assay (HEK-Blue cells, SEAP reporter, R848 stimulation).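 Note: compounds tested from 0.05 nM to 50 µM, 22 h at 37 °C, SEAP measured with HEK-Blue Detection, inhibition relative to agonist plus DMSO versus a known inhibitor.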
human TLR8, sequence (Q9NR97 27-1041): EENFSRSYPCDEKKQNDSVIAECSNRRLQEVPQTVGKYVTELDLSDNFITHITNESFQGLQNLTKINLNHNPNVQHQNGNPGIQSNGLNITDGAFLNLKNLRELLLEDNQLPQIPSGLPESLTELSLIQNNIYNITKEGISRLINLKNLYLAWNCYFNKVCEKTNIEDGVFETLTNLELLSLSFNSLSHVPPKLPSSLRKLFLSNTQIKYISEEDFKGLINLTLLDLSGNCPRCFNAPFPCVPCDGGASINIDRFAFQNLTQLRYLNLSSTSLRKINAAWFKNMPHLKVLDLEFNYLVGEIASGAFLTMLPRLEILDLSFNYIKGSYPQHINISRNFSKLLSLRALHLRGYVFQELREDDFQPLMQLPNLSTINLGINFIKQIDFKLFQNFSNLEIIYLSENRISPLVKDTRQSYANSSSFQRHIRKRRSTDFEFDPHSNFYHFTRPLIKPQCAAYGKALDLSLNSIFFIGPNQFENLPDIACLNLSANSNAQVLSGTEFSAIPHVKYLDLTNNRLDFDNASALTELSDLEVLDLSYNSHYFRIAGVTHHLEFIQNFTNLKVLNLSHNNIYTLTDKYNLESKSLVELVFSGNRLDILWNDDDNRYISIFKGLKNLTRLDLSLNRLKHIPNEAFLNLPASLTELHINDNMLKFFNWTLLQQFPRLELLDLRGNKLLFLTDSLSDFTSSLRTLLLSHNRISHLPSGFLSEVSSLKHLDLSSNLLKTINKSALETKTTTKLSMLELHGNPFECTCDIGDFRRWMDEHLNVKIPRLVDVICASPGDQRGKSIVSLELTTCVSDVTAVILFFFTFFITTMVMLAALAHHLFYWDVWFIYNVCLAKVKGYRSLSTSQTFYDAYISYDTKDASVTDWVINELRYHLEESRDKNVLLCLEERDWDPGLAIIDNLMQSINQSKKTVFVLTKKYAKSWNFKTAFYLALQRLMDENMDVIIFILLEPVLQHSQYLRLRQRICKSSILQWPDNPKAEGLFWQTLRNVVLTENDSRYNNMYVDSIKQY
For the next experiment, the target named is human TLR9 (Homo sapiens (Human), UniProt Q9NR96). Put plainly: TLR9 inhibition reporter assay (HEK-Blue cells, SEAP reporter, ODN2006 stimulation).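 Note: compounds tested over 0.05 nM to 50 µM, 22 h incubation, inhibition taken as SEAP signal drop from agonist plus DMSO wells toward a known inhibitor control.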
human TLR9, sequence (Q9NR96 26-1032): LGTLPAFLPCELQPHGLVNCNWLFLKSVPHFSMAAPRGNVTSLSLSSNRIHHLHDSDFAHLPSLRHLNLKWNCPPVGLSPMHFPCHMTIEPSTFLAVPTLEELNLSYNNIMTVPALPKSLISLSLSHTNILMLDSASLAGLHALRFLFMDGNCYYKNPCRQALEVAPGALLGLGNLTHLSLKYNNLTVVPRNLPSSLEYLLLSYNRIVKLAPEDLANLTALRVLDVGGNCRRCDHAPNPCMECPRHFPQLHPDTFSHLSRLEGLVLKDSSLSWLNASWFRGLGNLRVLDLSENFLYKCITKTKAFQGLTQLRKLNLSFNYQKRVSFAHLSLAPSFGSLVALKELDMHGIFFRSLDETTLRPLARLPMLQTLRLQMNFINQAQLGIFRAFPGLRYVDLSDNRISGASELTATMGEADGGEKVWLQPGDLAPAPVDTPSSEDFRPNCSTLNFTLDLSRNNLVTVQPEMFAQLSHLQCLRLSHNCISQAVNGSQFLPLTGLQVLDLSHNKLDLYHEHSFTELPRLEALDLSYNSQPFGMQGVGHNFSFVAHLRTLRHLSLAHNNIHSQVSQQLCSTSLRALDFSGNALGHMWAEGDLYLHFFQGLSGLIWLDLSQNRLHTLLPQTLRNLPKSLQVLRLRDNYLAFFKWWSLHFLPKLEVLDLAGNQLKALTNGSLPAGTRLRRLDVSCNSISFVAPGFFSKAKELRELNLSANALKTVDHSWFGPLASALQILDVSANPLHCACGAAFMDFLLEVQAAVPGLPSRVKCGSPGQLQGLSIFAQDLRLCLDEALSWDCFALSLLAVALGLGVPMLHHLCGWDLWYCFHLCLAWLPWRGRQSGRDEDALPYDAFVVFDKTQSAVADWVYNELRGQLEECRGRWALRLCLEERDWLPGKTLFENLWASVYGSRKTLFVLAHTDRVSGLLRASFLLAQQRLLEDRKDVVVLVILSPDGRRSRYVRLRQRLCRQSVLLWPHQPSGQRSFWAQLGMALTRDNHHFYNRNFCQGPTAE
[1] abbreviates: HEK-Blue cells overexpressing human TLR7, gardiquimod 7.5 μM.
Where [2] appears, read: read-out: TLR8 IC50, HEK-Blue cells overexpressing human TLR8, R848 15.9 μM.
Where [3] appears, read: read-out: TLR9 IC50, HEK-Blue cells overexpressing human TLR9, ODN2006 5 nM.
Setting [4] is: HEK-Blue cells, gardiquimod 7.5 μM.
Where [5] appears, read: read-out: TLR8 IC50, HEK-Blue cells, R848 15.9 μM.
Where [6] appears, read: read-out: TLR9 IC50, HEK-Blue cells, ODN2006 5 nM.
The mark [7] stands for this setting: TLR8 IC50, HEK-Blue cells overexpressing human TLR8, R848 15.9 μM.
The mark [8] stands for this setting: TLR9 IC50, HEK-Blue cells overexpressing human TLR9, ODN2006 5 nM.

human TLR7, sequence (Q9NYK1 27-1049): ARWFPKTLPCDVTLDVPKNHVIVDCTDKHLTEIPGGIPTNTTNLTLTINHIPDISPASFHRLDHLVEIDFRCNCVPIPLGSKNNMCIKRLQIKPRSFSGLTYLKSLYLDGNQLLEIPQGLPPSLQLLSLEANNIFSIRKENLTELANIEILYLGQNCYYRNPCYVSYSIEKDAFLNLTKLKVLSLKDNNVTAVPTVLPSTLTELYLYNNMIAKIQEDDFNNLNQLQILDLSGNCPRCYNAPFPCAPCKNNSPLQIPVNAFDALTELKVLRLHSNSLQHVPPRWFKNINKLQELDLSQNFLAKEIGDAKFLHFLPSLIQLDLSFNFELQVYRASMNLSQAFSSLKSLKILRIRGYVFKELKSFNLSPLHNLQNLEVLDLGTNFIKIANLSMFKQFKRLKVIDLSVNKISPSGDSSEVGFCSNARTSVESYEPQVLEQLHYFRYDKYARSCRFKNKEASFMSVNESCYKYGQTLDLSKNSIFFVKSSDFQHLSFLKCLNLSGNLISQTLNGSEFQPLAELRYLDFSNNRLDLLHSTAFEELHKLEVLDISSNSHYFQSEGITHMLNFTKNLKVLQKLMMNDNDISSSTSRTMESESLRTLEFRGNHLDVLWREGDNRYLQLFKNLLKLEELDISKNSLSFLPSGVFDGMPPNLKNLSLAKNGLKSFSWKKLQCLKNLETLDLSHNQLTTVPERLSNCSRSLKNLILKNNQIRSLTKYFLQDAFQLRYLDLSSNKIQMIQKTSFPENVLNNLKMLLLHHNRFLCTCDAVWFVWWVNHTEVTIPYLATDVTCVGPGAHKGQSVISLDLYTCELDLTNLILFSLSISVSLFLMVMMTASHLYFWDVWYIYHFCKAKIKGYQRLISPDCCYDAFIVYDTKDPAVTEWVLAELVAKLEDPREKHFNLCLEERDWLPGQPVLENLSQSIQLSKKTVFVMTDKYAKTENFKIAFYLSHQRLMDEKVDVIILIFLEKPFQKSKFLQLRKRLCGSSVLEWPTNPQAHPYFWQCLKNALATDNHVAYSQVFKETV

In the case of `CCc1c(-c2ccnc(Cl)c2)[nH]c2ccc(C3CCNCC3)cc12` [Example 62, 2-(2-chloropyridin-4-yl)-3-ethyl-5-(piperidin-4-yl)-1H-indole], the IC50 – broadly, the point on the concentration scale where inhibition reaches its midpoint – was 22 nM at human TLR7 (setting [1]), 19.4 nM at human TLR8 (setting [2]) and 2100 nM on human TLR9 (setting [3]).

As to `Cc1cc(-c2[nH]c3ccc(C4CCNCC4)cc3c2CC(F)F)ccn1` [Example 84, 3-(2,2-difluoroethyl)-2-(2-methylpyridin-4-yl)-5-(piperidin-4-yl)-1H-indole], the IC50 at human TLR7 (setting [1]) is 75.9 nM; at human TLR8 (setting [2]) it was 39.4 nM; on human TLR9 (setting [3]) it was 464 nM.

For `Cc1cc(-c2[nH]c3ccc(C4CCN(Cc5ncccn5)CC4)cc3c2C(C)C)cc(C)n1` [Example 460, 2-(2,6-dimethylpyridin-4-yl)-3-isopropyl-5-(1-(pyrimidin-2-ylmethyl)piperidin-4-yl)-1H-indole], the results for the half-maximal inhibitory concentration (IC50) against human TLR7 (setting [1]), at human TLR8 (setting [2]) and on human TLR9 (setting [3]) were 6.2 nM, 5.8 nM and 396 nM, respectively.

In the case of `Cc1cc(-c2[nH]c3ccc(C4CCN(C(=O)CC(=O)Nc5nccs5)CC4)cc3c2C(C)C)cc(C)n1` [Example 142, 3-(4-(2-(2,6-dimethylpyridin-4-yl)-3-isopropyl-1H-indol-5-yl)piperidin-1-yl)-3-oxo-N-(thiazol-2-yl)propanamide], the IC50 is 18.2 nM against human TLR7 (setting [1]), 96.3 nM at human TLR8 (setting [2]) and greater than 50000 nM at human TLR9 (setting [3]).

For `Cc1cc(-c2[nH]c3ccc(C4CCN(C(=O)C5CCCO5)CC4)cc3c2C(C)C)cc(C)n1` (stereo not drawn) [Example 103, (4-(2-(2,6-dimethylpyridin-4-yl)-3-isopropyl-1H-indol-5-yl)piperidin-1-yl)(tetrahydrofuran-2-yl)methanone], the results for the half-inhibitory concentration (IC50) at human TLR7 (setting [1]), at human TLR8 (setting [2]) and on human TLR9 (setting [3]) were 8.6 nM, 80.8 nM and 27700 nM, respectively.

On to `Cc1cc(-c2[nH]c3ccc(C4CCN(CC5COC5)CC4)cc3c2C(C)C)c(F)cn1` [Example 650, 2-(5-fluoro-2-methylpyridin-4-yl)-3-isopropyl-5-(1-(oxetan-3-ylmethyl)piperidin-4-yl)-1H-indole], for which the concentration for half-maximal inhibition (IC50) turned out to be 4.7 nM at human TLR7 (setting [1]), 1.8 nM on human TLR8 (setting [2]) and 3400 nM on human TLR9 (setting [3]).

`Cc1cc(-c2[nH]c3ccc(C4CCN(CC(=O)N5CCC5)CC4)cc3c2C(C)C)cc(C)n1` [Example 227, 1-(azetidin-1-yl)-2-(4-(2-(2,6-dimethylpyridin-4-yl)-3-isopropyl-1H-indol-5-yl)piperidin-1-yl)ethan-1-one]: the concentration for half-maximal inhibition (IC50) at human TLR7 (setting [1]) was determined as 3.8 nM; at human TLR8 (setting [2]), 9.1 nM; on human TLR9 (setting [3]), 1500 nM.

Turning to `Cc1cc(-c2[nH]c3ccc(C4CCN(CC(=O)N(C)C)CC4)cc3c2C(C)C)cc(F)n1` [Example 500, 2-(4-(2-(2-fluoro-6-methylpyridin-4-yl)-3-isopropyl-1H-indol-5-yl)piperidin-1-yl)-N,N-dimethylacetamide], the half-inhibitory concentration (IC50) was 6.3 nM at human TLR7 (setting [1]), 14.2 nM on human TLR8 (setting [2]) and 3320 nM on human TLR9 (setting [3]).

On to `Cc1cc(-c2[nH]c3ccc(C4CCN(C(C)CF)CC4)cc3c2C(C)C)ccn1` (stereo not drawn) [Example 864, 5-(1-(1-fluoropropan-2-yl)piperidin-4-yl)-3-isopropyl-2-(2-methylpyridin-4-yl)-1H-indole], for which the values for the 50% inhibitory concentration (IC50) at human TLR7 (setting [4]), on human TLR8 (setting [5]) and at human TLR9 (setting [6]) were 16.7 nM, 10.7 nM and 917 nM, respectively.

For the molecule `Cc1cc(-c2[nH]c3ccc(C4CCN(C(=O)C[C@H](C)O)CC4)cc3c2C(C)C)cc(C)n1` [Example 109, (S)-1-(4-(2-(2,6-dimethylpyridin-4-yl)-3-isopropyl-1H-indol-5-yl)piperidin-1-yl)-3-hydroxybutan-1-one], the IC50 amounted to 10.7 nM against human TLR7 (setting [1]), 150 nM at human TLR8 (setting [2]) and 41400 nM at human TLR9 (setting [3]).

On to `Cc1cc(-c2[nH]c3ccc(C4CCN(CCC(F)(F)F)CC4)cc3c2C(C)C)cc(C)n1` [Example 677, 2-(2,6-dimethylpyridin-4-yl)-3-isopropyl-5-(1-(3,3,3-trifluoropropyl)piperidin-4-yl)-1H-indole], for which the concentration for half-maximal inhibition (IC50) was determined as 3.4 nM against human TLR7 (setting [1]), 6.7 nM at human TLR8 (setting [2]) and 1690 nM on human TLR9 (setting [3]).

In the case of `Cc1cc(-c2[nH]c3ccc(C4CCN(C(=O)c5c(C)n[nH]c5C)CC4)cc3c2C(C)C)cc(C)n1` [Example 121, (3,5-dimethyl-1H-pyrazol-4-yl)(4-(2-(2,6-dimethylpyridin-4-yl)-3-isopropyl-1H-indol-5-yl)piperidin-1-yl)methanone], the IC50 on human TLR7 (setting [1]) was 30 nM; at human TLR8 (setting [2]) it was 98 nM; at human TLR9 (setting [3]) it was 10700 nM.

Turning to `CCNC(=O)CN1CCC(c2ccc3[nH]c(-c4cc(C)nc(C)c4)c(C(C)C)c3c2)CC1` [Example 235, 2-(4-(2-(2,6-dimethylpyridin-4-yl)-3-isopropyl-1H-indol-5-yl)piperidin-1-yl)-N-ethylacetamide], the IC50 at human TLR7 (setting [1]) is 5.2 nM; on human TLR8 (setting [7]), 14.1 nM; against human TLR9 (setting [8]), 965 nM.

With `COc1nccc(-c2[nH]c3ccc(C4CCN(C5CCN(CC(C)C)CC5)CC4)cc3c2C)c1OC` [Example 799, 2-(2,3-dimethoxypyridin-4-yl)-5-(1′-isobutyl-[1,4′-bipiperidin]-4-yl)-3-methyl-1H-indole], the 50% inhibitory concentration (IC50) at human TLR7 (setting [1]) was found to be 1670 nM; at human TLR8 (setting [2]) it was 360 nM; on human TLR9 (setting [3]), 180 nM.

On to `CC(C)c1c(-c2ccnc(Cl)c2C#N)[nH]c2ccc(C3CCNCC3)cc12` [Example 36, 2-chloro-4-(3-isopropyl-5-(piperidin-4-yl)-1H-indol-2-yl)nicotinonitrile], for which the IC50 at human TLR7 (setting [1]) is 1270 nM; at human TLR8 (setting [2]), 454 nM; at human TLR9 (setting [3]), 4870 nM.

Take `COc1cc(-c2[nH]c3ccc(C4CCN(C5CCN(CC(C)C)CC5)CC4)cc3c2C(C)C)ccn1` [Example 803, 5-(1′-isobutyl-[1,4′-bipiperidin]-4-yl)-3-isopropyl-2-(2-methoxypyridin-4-yl)-1H-indole]: the IC50 was determined as 79.7 nM against human TLR7 (setting [1]), 333 nM on human TLR8 (setting [2]) and 986 nM on human TLR9 (setting [3]).

`Cc1cnc(N)cc1-c1[nH]c2ccc(C3CCNCC3)cc2c1C(C)C` [Example 9, 4-(3-isopropyl-5-(piperidin-4-yl)-1H-indol-2-yl)-5-methylpyridin-2-amine]: the IC50 on human TLR7 (setting [1]) is 75.1 nM; on human TLR8 (setting [2]), 22.1 nM; on human TLR9 (setting [3]), 562 nM.

Regarding `Cc1cc(-c2[nH]c3ccc(C4CCN(CC(=O)N(C)C(C)C)CC4)cc3c2C(C)C)cc(C)n1` [Example 244, 2-(4-(2-(2,6-dimethylpyridin-4-yl)-3-isopropyl-1H-indol-5-yl)piperidin-1-yl)-N-isopropyl-N-methylacetamide], the IC50 against human TLR7 (setting [1]) came to 8.2 nM; at human TLR8 (setting [7]) it was 20.3 nM; against human TLR9 (setting [8]), 990 nM.

In the case of `CCc1c(-c2ccnc(C)c2)[nH]c2ccc(C3CCN(C(=O)C4CCNC4)CC3)cc12` (stereo not drawn) [Example 595, (4-(3-ethyl-2-(2-methylpyridin-4-yl)-1H-indol-5-yl)piperidin-1-yl)(pyrrolidin-3-yl)methanone], the figures for the half-inhibitory concentration (IC50) against human TLR7 (setting [1]), at human TLR8 (setting [2]) and at human TLR9 (setting [3]) were 84.7 nM, 32.7 nM and 348 nM, respectively.

Consider `Cc1cc(-c2[nH]c3ccc(C4CCNCC4)cc3c2CC2CC2)ccn1` [Example 89, 3-(cyclopropylmethyl)-2-(2-methylpyridin-4-yl)-5-(piperidin-4-yl)-1H-indole], for which the IC50 at human TLR7 (setting [1]) was 13.6 nM; on human TLR8 (setting [2]), 10.7 nM; on human TLR9 (setting [3]), 548 nM.

Regarding `Cc1c(-c2[nH]c3ccc(C4CCNCC4)cc3c2C(C)C)ccnc1N` [Example 11, 4-(3-isopropyl-5-(piperidin-4-yl)-1H-indol-2-yl)-3-methylpyridin-2-amine], the IC50 is 358 nM at human TLR7 (setting [1]), 90.6 nM against human TLR8 (setting [7]) and 309 nM against human TLR9 (setting [8]).

In the case of `COCCN1CCN(C(=O)CN2CCC(c3ccc4[nH]c(-c5cc(C)nc(C)c5)c(C(C)C)c4c3)CC2)CC1` [Example 265, 2-(4-(2-(2,6-dimethylpyridin-4-yl)-3-isopropyl-1H-indol-5-yl)piperidin-1-yl)-1-(4-(2-methoxyethyl)piperazin-1-yl)ethan-1-one], the IC50 against human TLR7 (setting [1]) stood at 1.5 nM; at human TLR8 (setting [2]), 2.8 nM; on human TLR9 (setting [3]), 73 nM.

Consider `Cc1cc(-c2[nH]c3ccc(C4CCN(CC5CC5)CC4)cc3c2C(C)C)c(C)cn1` [Example 871, 5-(1-(cyclopropylmethyl)piperidin-4-yl)-2-(2,5-dimethylpyridin-4-yl)-3-isopropyl-1H-indole], for which the IC50 at human TLR7 (setting [4]) is 10 nM; at human TLR8 (setting [5]) it was 3.2 nM; on human TLR9 (setting [6]), 1840 nM.

Take `CC(=O)N(C)CCC(=O)N1CCC(c2ccc3[nH]c(-c4cc(C)nc(C)c4)c(C(C)C)c3c2)CC1` [Example 134, N-(3-(4-(2-(2,6-dimethylpyridin-4-yl)-3-isopropyl-1H-indol-5-yl)piperidin-1-yl)-3-oxopropyl)-N-methylacetamide]: the concentration for half-maximal inhibition (IC50) at human TLR7 (setting [1]) came out at 11.4 nM; at human TLR8 (setting [2]) it was 90.3 nM; on human TLR9 (setting [3]), 34600 nM.

On to `Cc1cc(-c2[nH]c3ccc(C4CCN(CC(=O)N5C[C@@H](C(F)(F)F)C[C@H]5CO)CC4)cc3c2C(C)C)cc(C)n1` [Example 291, 2-(4-(2-(2,6-dimethylpyridin-4-yl)-3-isopropyl-1H-indol-5-yl)piperidin-1-yl)-1-((2S,4S)-2-(hydroxymethyl)-4-(trifluoromethyl)pyrrolidin-1-yl)ethan-1-one], for which the concentration for half-maximal inhibition (IC50) amounted to 18.1 nM at human TLR7 (setting [1]), 124 nM at human TLR8 (setting [2]) and 3200 nM on human TLR9 (setting [3]).

On to `Cc1cc(-c2[nH]c3ccc(C4CCN(Cc5c[nH]c(C)n5)CC4)cc3c2C(C)C)cc(C)n1` [Example 426, 2-(2,6-dimethylpyridin-4-yl)-3-isopropyl-5-(1-((2-methyl-1H-imidazol-4-yl)methyl)piperidin-4-yl)-1H-indole], for which the IC50 on human TLR7 (setting [1]) was 6.1 nM; on human TLR8 (setting [2]), 2.6 nM; at human TLR9 (setting [3]) it was 90 nM.
